Test results taken from ChEMBL document CHEMBL1201861, “Genomics of Drug Sensitity in Cancer screening data, Wellcome Trust Sanger Institute”.

Tests used:
Assay in all cases: cells
[1] = system: Calu-6; format: functional, cell-based, Homo sapiens; conditions: Homo sapiens, Calu-6;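 note: growth of human Calu-6 cells, read out by a cell viability assay, IC50 marking inhibition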
Description: SANGER: Inhibition of human Calu-6 cell growth in a cell viability assay.

[2] = system: DB; format: functional, cell-based; conditions: Homo sapiens
Description: SANGER: Inhibition of human DB cell growth in a cell viability assay.

[3] = system: EFO-21; format: functional, cell-based, Homo sapiens; conditions: Homo sapiens, EFO-21;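 note: growth inhibition of EFO-21 cells measured with a viability assay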
Description: SANGER: Inhibition of human EFO-21 cell growth in a cell viability assay.

[4] = system: EFO-27; format: functional, cell-based, Homo sapiens; conditions: Homo sapiens, EFO-27;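 note: growth inhibition of EFO-27 cells, read out with a cell viability assay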
Description: SANGER: Inhibition of human EFO-27 cell growth in a cell viability assay.

[5] = system: ETK-1; format: functional, cell-based, Homo sapiens; conditions: Homo sapiens, ETK-1;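 note: growth inhibition of human ETK-1 cells, read out with a cell viability assay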
Description: SANGER: Inhibition of human ETK-1 cell growth in a cell viability assay.

[6] = system: EW-16; format: functional, cell-based, Homo sapiens; conditions: Homo sapiens, EW-16;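 note: growth inhibition of human EW-16 cells, read out as cell viability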
Description: SANGER: Inhibition of human EW-16 cell growth in a cell viability assay.

[7] = system: GB-1; format: functional, cell-based, Homo sapiens; conditions: Homo sapiens, GB-1;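 note: growth of GB-1 cells judged by a viability assay, IC50 marks the concentration inhibiting growth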
Description: SANGER: Inhibition of human GB-1 cell growth in a cell viability assay.

[8] = system: HCC1187; format: functional, cell-based, Homo sapiens; conditions: Homo sapiens, HCC1187;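 note: growth inhibition of HCC1187 cells, read out with a cell viability assay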
Description: SANGER: Inhibition of human HCC1187 cell growth in a cell viability assay.

[9] = system: HLE; format: functional, cell-based, Homo sapiens; conditions: Homo sapiens, HLE;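 note: growth inhibition of human HLE cells, read out by a cell viability assay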
Description: SANGER: Inhibition of human HLE cell growth in a cell viability assay.

[10] = system: IGROV-1; format: functional, cell-based, Homo sapiens; conditions: Homo sapiens, IGROV-1;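 note: reduction of IGROV-1 cell growth, read out with a viability assay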
Description: SANGER: Inhibition of human IGROV-1 cell growth in a cell viability assay.

[11] = system: KGN; format: functional, cell-based, Homo sapiens; conditions: Homo sapiens, KGN;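 note: growth inhibition of KGN cells, read out with a cell viability assay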
[12] = system: KNS-81-FD; format: functional, cell-based, Homo sapiens; conditions: Homo sapiens, KNS-81-FD;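 note: growth inhibition of KNS-81-FD cells, read out with a cell viability assay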
Description: SANGER: Inhibition of human KNS-81-FD cell growth in a cell viability assay.

[13] = system: KYSE-510; format: functional, cell-based, Homo sapiens; conditions: Homo sapiens, KYSE-510;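 note: cell viability readout used to measure how strongly growth of the cell line is suppressed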
Description: SANGER: Inhibition of human KYSE-510 cell growth in a cell viability assay.

[14] = system: KYSE-70 cell line; format: functional, cell-based, Homo sapiens; conditions: Homo sapiens, KYSE-70;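 note: cell viability assay read-out, with IC50 expressing suppression of KYSE-70 cell growth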
Description: SANGER: Inhibition of human KYSE-70 cell growth in a cell viability assay.

[15] = system: LB771-HNC; format: functional, cell-based, Homo sapiens; conditions: Homo sapiens, LB771-HNC;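 note: growth inhibition of LB771-HNC human cells, read out with a cell viability assay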
[16] = system: LU-99A; format: functional, cell-based, Homo sapiens; conditions: Homo sapiens, LU-99A;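 note: growth inhibition of LU-99A cells, read out with a cell viability assay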
Description: SANGER: Inhibition of human LU-99A cell growth in a cell viability assay.

[17] = system: MC116; format: functional, cell-based; conditions: Homo sapiens;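 note: growth inhibition of MC116 cells, read out with a cell viability assay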
Description: SANGER: Inhibition of human MC116 cell growth in a cell viability assay.

[18] = system: MDA-MB-157; format: functional, cell-based, Homo sapiens; conditions: Homo sapiens, MDA-MB-157
Description: SANGER: Inhibition of human MDA-MB-157 cell growth in a cell viability assay.

[19] = system: MEL-HO; format: functional, cell-based, Homo sapiens; conditions: Homo sapiens, MEL-HO
Description: SANGER: Inhibition of human MEL-HO cell growth in a cell viability assay.

[20] = system: MKN-1; format: functional, cell-based, Homo sapiens; conditions: Homo sapiens, MKN-1;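 note: growth inhibition of human MKN1 cells, read out by a cell viability measurement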
Description: SANGER: Inhibition of human MKN1 cell growth in a cell viability assay.

[21] = system: MeWo; format: functional, cell-based, Homo sapiens; conditions: Homo sapiens, MeWo;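 note: growth inhibition of MeWo cells, determined by a cell viability readout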
Description: SANGER: Inhibition of human Mewo cell growth in a cell viability assay.

[22] = system: NB12; format: functional, cell-based, Homo sapiens; conditions: Homo sapiens, NB12;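 note: growth inhibition of human NB12 cells, read out by a cell viability assay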
Description: SANGER: Inhibition of human NB12 cell growth in a cell viability assay.

[23] = system: NCI-H1299; format: functional, cell-based, Homo sapiens; conditions: Homo sapiens, NCI-H1299;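 note: growth inhibition of human NCI-H1299 cells, read out by a cell viability assay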
Description: SANGER: Inhibition of human NCI-H1299 cell growth in a cell viability assay.

[24] = system: NCI-H1437; format: functional, cell-based, Homo sapiens; conditions: Homo sapiens, NCI-H1437;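 note: growth inhibition of human NCI-H1437 cells, read out by a cell viability assay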
Description: SANGER: Inhibition of human NCI-H1437 cell growth in a cell viability assay.

[25] = system: NCI-H1581; format: functional, cell-based, Homo sapiens; conditions: Homo sapiens, NCI-H1581;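 note: cell growth inhibition read out by a viability assay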
Description: SANGER: Inhibition of human NCI-H1581 cell growth in a cell viability assay.

[26] = system: NCI-H1838; format: functional, cell-based, Homo sapiens; conditions: Homo sapiens, NCI-H1838;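 note: growth inhibition of NCI-H1838 cells, determined with a cell viability readout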
Description: SANGER: Inhibition of human NCI-H1838 cell growth in a cell viability assay.

[27] = system: NCI-H226; format: functional, cell-based, Homo sapiens; conditions: Homo sapiens, NCI-H226;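 note: cell viability read-out used to gauge growth inhibition of the cells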
Description: SANGER: Inhibition of human NCI-H226 cell growth in a cell viability assay.

[28] = system: SNU-5; format: functional, cell-based; conditions: Homo sapiens;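 note: cell viability readout used to measure growth inhibition in human NCI-SNU-5 cells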
Description: SANGER: Inhibition of human NCI-SNU-5 cell growth in a cell viability assay.

[29] = system: OAW-42; format: functional, cell-based, Homo sapiens; conditions: Homo sapiens, OAW-42;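 note: growth inhibition of OAW-42 cells, read out with a cell viability assay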
Description: SANGER: Inhibition of human OAW-42 cell growth in a cell viability assay.

[30] = system: OCI-AML2; format: functional, cell-based; conditions: Homo sapiens;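 note: growth inhibition of OCI-AML2 cells, read out with a cell viability assay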
Description: SANGER: Inhibition of human OCI-AML2 cell growth in a cell viability assay.

[31] = system: OVCAR-3; format: functional, cell-based, Homo sapiens; conditions: Homo sapiens, OVCAR-3;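 note: growth inhibition of human OVCAR-3 cells, determined by a cell viability assay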
Description: SANGER: Inhibition of human OVCAR-3 cell growth in a cell viability assay.

[32] = system: P30-OHK; format: functional, cell-based; conditions: Homo sapiens;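 note: growth inhibition of the P30-OHK cell line, read out with a cell viability assay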
Description: SANGER: Inhibition of human P30-OHK cell growth in a cell viability assay.

[33] = system: RXF 393; format: functional, cell-based; conditions: Homo sapiens;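 note: growth inhibition of human RXF 393 cells, read out with a cell viability assay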
[34] = system: Ramos-2G6-4C10; format: functional, cell-based; conditions: Homo sapiens;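 note: growth inhibition of the cell line, measured by a cell viability read-out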
Description: SANGER: Inhibition of human Ramos-2G6-4C10 cell growth in a cell viability assay.

[35] = system: SHP77; format: functional, cell-based, Homo sapiens, SHP-77; conditions: Homo sapiens, SHP77;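 note: growth inhibition of human SHP-77 cells measured by a cell viability assay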
Description: SANGER: Inhibition of human SHP-77 cell growth in a cell viability assay.

[36] = system: SJSA-1; format: functional, cell-based, Homo sapiens; conditions: Homo sapiens, SJSA-1;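 note: growth inhibition of human SJSA-1 cells, read out through a cell viability measurement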
Description: SANGER: Inhibition of human SJSA-1 cell growth in a cell viability assay.

[37] = system: SNB-75; format: functional, cell-based, Homo sapiens; conditions: Homo sapiens, SNB-75;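 note: cell viability assay measuring growth inhibition of human SNB-75 cells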
Description: SANGER: Inhibition of human SNB75 cell growth in a cell viability assay.

[38] = system: SNU-387; format: functional, cell-based, Homo sapiens; conditions: Homo sapiens, SNU-387
Description: SANGER: Inhibition of human SNU-387 cell growth in a cell viability assay.

[39] = system: SW948; format: functional, cell-based, Homo sapiens; conditions: Homo sapiens, SW948;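 note: growth inhibition of SW948 cells, read out with a cell viability assay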
Description: SANGER: Inhibition of human SW948 cell growth in a cell viability assay.

[40] = system: ACN; format: functional, cell-based, Homo sapiens; conditions: Homo sapiens, ACN;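 note: growth inhibition of the human ACN cell line, read out via cell viability testing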
Description: SANGER: Inhibition of human ACN cell growth in a cell viability assay.

[41] = system: AN3-CA; format: functional, cell-based; conditions: Homo sapiens;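 note: growth inhibition of human AN3-CA cells measured by a cell viability assay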
Description: SANGER: Inhibition of human AN3-CA cell growth in a cell viability assay.

[42] = system: BFTC-909; format: functional, cell-based, Homo sapiens; conditions: Homo sapiens, BFTC-909
Description: SANGER: Inhibition of human BFTC-909 cell growth in a cell viability assay.

[43] = system: BT-474; format: functional, cell-based, Homo sapiens; conditions: Homo sapiens, BT-474
Description: SANGER: Inhibition of human BT-474 cell growth in a cell viability assay.

[44] = system: C32; format: functional, cell-based, Homo sapiens; conditions: Homo sapiens, C32;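 note: cell viability assay, with IC50 reflecting inhibition of C32 cell growth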
Description: SANGER: Inhibition of human C32 cell growth in a cell viability assay.

[45] = system: TGBC1TKB; format: functional, cell-based, Homo sapiens; conditions: Homo sapiens, TGBC1TKB;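 note: growth inhibition of TGBC1TKB cells, read out by a cell viability assay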
Description: SANGER: Inhibition of human TGBC1TKB cell growth in a cell viability assay.

[46] = system: U2OS; format: functional, cell-based, Homo sapiens, U-2-OS; conditions: Homo sapiens, U2OS;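 note: growth inhibition of human U-2-OS cells, determined with a cell viability assay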
Description: SANGER: Inhibition of human U-2-OS cell growth in a cell viability assay.

[47] = system: YKG-1; format: functional, cell-based, Homo sapiens; conditions: Homo sapiens, YKG-1;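 note: cell growth inhibition, read out with a viability assay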
Description: SANGER: Inhibition of human YKG-1 cell growth in a cell viability assay.

[48] = system: no-10; format: functional, cell-based, Homo sapiens; conditions: Homo sapiens;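 note: growth inhibition of no-10 cells, read out with a cell viability assay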
Description: SANGER: Inhibition of human no-10 cell growth in a cell viability assay.

[49] = system: CHP-212; format: functional, cell-based, Homo sapiens; conditions: Homo sapiens, CHP-212
Description: SANGER: Inhibition of human CHP-212 cell growth in a cell viability assay.

Measured: IC50

Cc1ccc(Nc2nccc(N(C)c3ccc4c(C)n(C)nc4c3)n2)cc1S(N)(=O)=O [PAZOPANIB]
1640 nM: [9]
6570 nM: [37]
4070 nM: [11]
5470 nM: [32]
3250 nM: [10]
5730 nM: [7]
10.1 nM: [41]
> 8000 nM: all other assays above

C[C@]1(O)C[C@@H](c2nc(-c3ccc4ccc(-c5ccccc5)nc4c3)c3c(N)nccn32)C1 [LINSITINIB]
188 nM: [6]
259 nM: [15]
994 nM: [38]
1040 nM: [36]
1150 nM: [10]
> 2560 nM: all other assays above

C=CCc1cccc(/C=N/NC(=O)CN2CCN(Cc3ccccc3)CC2)c1O [PAC-1]
1340 nM: [10]
1770 nM: [19]
1790 nM: [40]
2320 nM: [36]
2150 nM: [11]
2230 nM: [24]
1210 nM: [17]
2480 nM: [5]
1830 nM: [13]
> 2560 nM: all other assays above
